Measured values from the NIST ThermoML archive (doi:10.1021/je0604378).

Conditions: Liquid; for speed of sound: Pulse-echo method; for mass density: 101.33 kPa

CCCCCCCCCCO [decan-1-ol]
Conditions | speed of sound [m/s]
292.86 K, 60790 kPa | 1646.3
292.9 K, 30390 kPa | 1533.8
292.91 K, 15200 kPa | 1470.6
292.96 K, 45590 kPa | 1592
293.1 K, 100 kPa | 1397.2
297.95 K, 15200 kPa | 1453.8
297.95 K, 66240 kPa | 1649.8
297.96 K, 30390 kPa | 1518
297.96 K, 60790 kPa | 1631.4
297.96 K, 69300 kPa | 1660
297.98 K, 45590 kPa | 1576.8
297.99 K, 71850 kPa | 1668.2
297.99 K, 73520 kPa | 1673.6
297.99 K, 74700 kPa | 1677.6
298 K, 75990 kPa | 1681.7
298.07 K, 100 kPa | 1380
302.92 K, 15200 kPa | 1436.8
303.02 K, 60790 kPa | 1617
303.03 K, 66240 kPa | 1635.7
303.03 K, 71560 kPa | 1653.5
303.04 K, 100 kPa | 1362.8
303.04 K, 73600 kPa | 1660.2
303.05 K, 69230 kPa | 1645.7
303.08 K, 30390 kPa | 1501.5
303.09 K, 75990 kPa | 1667.8
303.11 K, 45590 kPa | 1561
303.15 K, 74790 kPa | 1664.1
307.92 K, 75990 kPa | 1655.1
307.93 K, 74720 kPa | 1650.9
307.94 K, 73310 kPa | 1646.2
307.95 K, 65860 kPa | 1620.9
307.96 K, 60790 kPa | 1603.1
307.96 K, 68850 kPa | 1631.3
307.96 K, 71380 kPa | 1639.8
307.97 K, 30390 kPa | 1486.6
307.98 K, 45590 kPa | 1546.9
308.04 K, 100 kPa | 1345.8
308.09 K, 15200 kPa | 1420
313 K, 60790 kPa | 1589.4
313 K, 65980 kPa | 1607.8
313 K, 69200 kPa | 1618.9
313.01 K, 100 kPa | 1329
313.01 K, 45590 kPa | 1532.5
313.03 K, 30390 kPa | 1471.9
313.03 K, 72900 kPa | 1631.5
313.04 K, 75990 kPa | 1641.7
313.06 K, 15200 kPa | 1404.5
318.18 K, 100 kPa | 1311.7
318.36 K, 15200 kPa | 1387.7
318.4 K, 65950 kPa | 1593.7
318.41 K, 60790 kPa | 1575.1
318.43 K, 72660 kPa | 1617
318.43 K, 73870 kPa | 1621.1
318.43 K, 75990 kPa | 1628.2
318.44 K, 30390 kPa | 1456
318.44 K, 45590 kPa | 1517.7
318.45 K, 30390 kPa | 1455.9

Conditions | mass density [kg/m3]
293.15 K | 829.758
298.15 K | 826.37
303.15 K | 822.95
308.15 K | 819.57
313.15 K | 816.12
318.15 K | 812.634

CCCCCCCO [heptan-1-ol]
Conditions | speed of sound [m/s]
292.76 K, 75990 kPa | 1654.2
292.77 K, 30390 kPa | 1487.3
292.77 K, 45590 kPa | 1546.9
292.77 K, 60790 kPa | 1602.6
292.77 K, 91180 kPa | 1702
292.77 K, 101320 kPa | 1732.7
292.78 K, 15200 kPa | 1421.7
292.89 K, 100 kPa | 1345.4
298.06 K, 15200 kPa | 1404.9
298.06 K, 30390 kPa | 1471.8
298.06 K, 45590 kPa | 1532.3
298.06 K, 60790 kPa | 1588.2
298.06 K, 75990 kPa | 1640.4
298.06 K, 91180 kPa | 1688.9
298.06 K, 101320 kPa | 1719.6
298.17 K, 100 kPa | 1327.2
302.94 K, 15200 kPa | 1389.5
302.94 K, 30390 kPa | 1457.3
302.94 K, 45590 kPa | 1518.7
302.94 K, 60790 kPa | 1575.3
302.94 K, 91180 kPa | 1677
302.94 K, 101320 kPa | 1708
302.95 K, 75990 kPa | 1628
303.14 K, 100 kPa | 1310.2
307.93 K, 60790 kPa | 1561.9
307.93 K, 91180 kPa | 1664.8
307.94 K, 15200 kPa | 1374
307.94 K, 30390 kPa | 1442.8
307.94 K, 45590 kPa | 1505
307.94 K, 75990 kPa | 1615.5
307.94 K, 101320 kPa | 1696
308.12 K, 100 kPa | 1293.2
312.9 K, 30390 kPa | 1428.7
312.9 K, 45590 kPa | 1491.6
312.9 K, 60790 kPa | 1549.1
312.9 K, 75990 kPa | 1603.1
312.9 K, 91180 kPa | 1653
312.91 K, 15200 kPa | 1358.9
312.91 K, 101320 kPa | 1684.7
313.09 K, 100 kPa | 1276.3
318.29 K, 30390 kPa | 1413.6
318.29 K, 45590 kPa | 1477.5
318.29 K, 60790 kPa | 1535.5
318.29 K, 75990 kPa | 1590
318.29 K, 91180 kPa | 1640.6
318.29 K, 101320 kPa | 1672.4
318.3 K, 15200 kPa | 1342.8
318.37 K, 100 kPa | 1258.6

Conditions | mass density [kg/m3]
293.15 K | 822.297
298.15 K | 818.796
303.15 K | 815.269
308.15 K | 811.724
313.15 K | 808.158
318.15 K | 804.546
